Reference: patent publication US20110288125A1, “NOVEL USE OF PIPERINE” (Industry-Academic Cooperation Foundation, Yonsei University, priority 2009, published 2011)
Entries after “also recorded” stand apart in the source; their conditions may differ.

Columns and labels:
[1] = system: mouse adipocytes (3T3-L1); test: Adipocyte differentiation inhibition, Oil Red O staining; assay type: cell-based; details: 14 days
Experimental: The effect of piperine on adipocyte differentiation and growth was investigated using mouse adipocytes (3T3-L1). Preadipocytes 3T3L1 were placed on a 12-well plate and cultured to confluency in a 5% CO2 incubator at 37° C. using DMEM containing 1% penicillin-streptomycin, 1% non-essential amino acids and 10% fetal bovine serum (FBS). The cultured 3T3-L1 cells were differentiated into adipocytes by culturing for 2 days in a medium containing 0.5 mM methylisobutylxanthine/1 μM dexamethasone/1 μg/mL insulin (DMI). The cells were differentiated into mature adipocytes by further culturing for 2 days in DMEM containing 1 μg/mL insulin. Subsequently, they were further cultured for 10 days while changing DMEM every other day to obtain fully differentiated adipocytes. Starting from the day when DMI was added to the 3T3-L1 cells, piperine was treated at concentrations of 0.1, 1, 10, 50 and 100 μM every other day. Piperine was purchased from Sigma and used after being dissolved in DMSO. For negative control, only DMSO was used. After the culturing for a total of 14 days, when the cells were fully differentiated, the medium was removed and the fats contained in the differentiated adipocytes were stained. […] To measure the triglyceride level of the differentiated 3T3-L1 cells, the stained cells were dissolved in 1 mL of isobutanol and OD value was measured at 600 nm.

C57BL/6J mice = test: Body weight, food efficiency and abdominal fat-pad weights in mice on high-fat diet; assay type: in vivo, mouse; details: 10 weeks
Experimental: The high-fat diet (HFD, 40% fat calorie, 17 g lard+3% corn oil/100 g diet) was used to induce obesity and piperine-containing diet had the same composition as the HFD except for containing 0.05% piperine. Normal diet (ND) was prepared according to AIN-76 rodent diet (see Table 1). [table] 5-week-old male C57BL/6J mice were accustomed to the laboratory environment for a week while feeding solid feed. […] Diet was provided between 10 and 11 a.m. every day along with water. Diet intake was measured every day, and body weight was measured every 3 days. In order to avoid transient body weight increase due to feed intake, body weight was measured 2 hours after removing the feedbox. […] In addition, food efficiency ratio (FER) was calculated by dividing accumulated body weight gain during test period into total diet uptake from the first day of test diet to sacrifice day. […] Further, regarding accumulation of abdominal fat, after fasting the test animal for at least 12 hours and anesthetizing with diethyl ether, blood, liver and abdominal fat tissues (epididymal, perirenal, mesenteric and retroperitoneal fat) were taken and weighed after washing with 0.1 M PBS (pH 7.4).

Swiss albino mice = details: piperine 100 mg/kg once a day for 4 weeks before benzo[α]pyrene 50 mg/kg twice a week for 16 weeks; cited from earlier work
[2] = 0.05% piperine in HFD, per unit body weight, FIG. 4

## O=C(/C=C/C=C/c1ccc2c(c1)OCO2)N1CCCCC1 [piperine]
[1]; piperine 0.1, 1, 10, 50 and 100 μM every other day, vs DMSO, FIG. 1A
  concentration at which differentiation of preadipocytes 3T3-L1 was decreased in a concentration-dependent manner: ≥ 10 µM
[1]; piperine 0.1-100 μM, stain dissolved in isobutanol, FIG. 1B
  amount of intracellular fat (OD value at 600 nm of fats stained with Oil Red O): concentration-dependently reduced the amount of intracellular fat; also recorded: decrease in OD value in a concentration-dependent manner
C57BL/6J mice; 0.05% piperine in HFD, FIG. 2
  decrease in body weight gain (accumulated) compared to high-fat diet control group: 68%
  decrease in final body weight compared to high-fat diet control group: 40%
C57BL/6J mice; 0.05% piperine in HFD, FIG. 3
  daily food intake compared to high-fat diet control group: reduced; also recorded: significant decrease
C57BL/6J mice; 0.05% piperine in HFD, body weight gain / total diet intake, FIG. 3
  reduction of food efficiency ratio (FER) compared to high-fat diet control group: 64%
C57BL/6J mice; [2]
  reduction of epididymal fat-pad weight compared to high-fat diet control group: 63%
  reduction of mesenteric fat-pad weight compared to high-fat diet control group: 68%
  reduction of perirenal fat-pad weight compared to high-fat diet control group: 85%
  reduction of retroperitoneal fat-pad weight compared to high-fat diet control group: 63%
  reduction of total abdominal (visceral) fat-pad weights compared to high-fat diet control group: 66%
C57BL/6J mice; piperine-supplemented diet
  feed efficiency compared to control group (HFD), in words: reduced
Swiss albino mice
  antioxidant indicators (SOD, CAT, GPX, GSH, vitamin E, vitamin C) in the tissues: significantly high values
